Test results from patent US11084895B2, “Modified polytetrafluoroethylene fine powder and uniaxially stretched porous body” (DAIKIN INDUSTRIES, LTD., priority 2013, dated 2021).

Assay: LogPOW, octanol-water partition coefficient calculated from HPLC elution time via calibration curve
Assay type: physicochemical
Details: partition coefficient between 1-octanol and water, ODS-120T column, acetonitrile/0.6 mass % HClO4 aq. 1/1, 40° C.
Procedure: The LogPOW value is a partition coefficient between 1-octanol and water, and is represented by LogP, wherein P represents the ratio of (fluorosurfactant concentration in octanol)/(fluorosurfactant concentration in water) when an octanol/water (1:1) liquid mixture containing a fluorosurfactant is phase-separated.
The octanol-water partition coefficient represented by LogPOW is calculated as follows. HPLC is performed on standard substances (heptanoic acid, octanoic acid, nonanoic acid, and decanoic acid) each having a known octanol-water partition coefficient using TOSOH ODS-120T column (ϕ4.6 mm×250 mm) as a column and acetonitrile/0.6 mass % HClO4 aqueous solution=1/1 (vol/vol %) as an eluent at a flow rate of 1.0 ml/min, a sample amount of 300 μL, and a column temperature of 40° C., with detection light UV 210 nm. A calibration curve between the respective elution times and the known octanol-water partition coefficients is drawn, and the LogPOW value is calculated from the elution time of the sample liquid in HPLC based on the calibration curve.

For `N.O=C(O)C(F)(OC(F)(F)C(F)(OC(F)(F)F)C(F)(F)F)C(F)(F)F` (centres unmarked) [CF3OCF(CF3)CF2OCF(CF3)COONH4], the LogPOW value was at most 3.4.

For `O=C(O)C(F)(F)C(F)(F)C(F)(F)C(F)(F)C(F)(F)C(F)(F)C(F)(F)F` [PFOA, ammonium perfluorooctanoate], the chromatographic logP was 3.5.
